Measured values taken from ChEMBL document CHEMBL1201861, “Genomics of Drug Sensitity in Cancer screening data, Wellcome Trust Sanger Institute”.

Legend:
Assay in all cases: cells
HD-MY-Z = format: functional, cell-based, Homo sapiens; details: Homo sapiens, HD-MY-Z;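 note: growth inhibition of HD-MY-Z cells, read out with a cell viability assay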
Description: SANGER: Inhibition of human HD-MY-Z cell growth in a cell viability assay.

DBTRG-05MG = format: functional, cell-based, Homo sapiens; details: Homo sapiens, DBTRG-05MG;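 note: cell viability assay measuring growth inhibition of human DBTRG-05MG cells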
Description: SANGER: Inhibition of human DBTRG-05MG cell growth in a cell viability assay.

GP5d = format: functional, cell-based, Homo sapiens; details: Homo sapiens, GP5d;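 note: growth inhibition of human GP5d cells, read out with a cell viability assay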
Description: SANGER: Inhibition of human GP5d cell growth in a cell viability assay.

UMUC3 = format: functional, cell-based, Homo sapiens; details: Homo sapiens, UMUC3;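 note: growth inhibition of human UM-UC-3 cells, read out with a cell viability assay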
Description: SANGER: Inhibition of human UM-UC-3 cell growth in a cell viability assay.

IST-MES1 = format: functional, cell-based, Homo sapiens; details: Homo sapiens, IST-MES1;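 note: growth inhibition of IST-MES1 cells, measured with a cell viability assay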
Description: SANGER: Inhibition of human IST-MES1 cell growth in a cell viability assay.

ES3 = format: functional, cell-based, Homo sapiens; details: Homo sapiens, ES3;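 note: growth inhibition of ES3 cells, read out with a cell viability assay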
Description: SANGER: Inhibition of human ES3 cell growth in a cell viability assay.

NCI-N87 = format: functional, cell-based, Homo sapiens; details: Homo sapiens, NCI-N87;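 note: growth inhibition of human NCI-N87 cells, read out with a cell viability assay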
Description: SANGER: Inhibition of human NCI-N87 cell growth in a cell viability assay.

OAW-28 = format: functional, cell-based, Homo sapiens; details: Homo sapiens, OAW-28;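 note: growth inhibition of OAW-28 cells, read out with a cell viability assay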
Description: SANGER: Inhibition of human OAW-28 cell growth in a cell viability assay.

MDA-MB-175-VII = format: functional, cell-based, Homo sapiens; details: Homo sapiens, MDA-MB-175-VII
AU565 = format: functional, cell-based, Homo sapiens; details: Homo sapiens, AU565;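 note: cell viability assay measuring growth inhibition of human AU565 cells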
Description: SANGER: Inhibition of human AU565 cell growth in a cell viability assay.

DMS-114 = format: functional, cell-based, Homo sapiens; details: Homo sapiens, DMS-114
LB771-HNC = format: functional, cell-based, Homo sapiens; details: Homo sapiens, LB771-HNC;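 note: growth inhibition of LB771-HNC human cells, read out with a cell viability assay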
Description: SANGER: Inhibition of human LB771-HNC cell growth in a cell viability assay.

T84 = format: functional, cell-based, Homo sapiens; details: Homo sapiens, T84;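 note: growth inhibition measured with a cell viability readout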
Description: SANGER: Inhibition of human T84 cell growth in a cell viability assay.

NCI-H23 = format: functional, cell-based, Homo sapiens; details: Homo sapiens, NCI-H23;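 note: cell viability assay measuring growth inhibition of NCI-H23 cells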
Description: SANGER: Inhibition of human NCI-H23 cell growth in a cell viability assay.

Huh-7 = format: functional, cell-based, Homo sapiens; details: Homo sapiens, Huh-7;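 note: HuH-7 cell growth inhibition, read out with a cell viability assay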
Description: SANGER: Inhibition of human HuH-7 cell growth in a cell viability assay.

NCI-H1650 = format: functional, cell-based, Homo sapiens; details: Homo sapiens, NCI-H1650;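 note: growth inhibition of human NCI-H1650 cells measured by a cell viability assay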
Description: SANGER: Inhibition of human NCI-H1650 cell growth in a cell viability assay.

M14 = format: functional, cell-based, Homo sapiens; details: Homo sapiens, M14;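 note: growth inhibition of M14 cells, read out with a cell viability assay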
Description: SANGER: Inhibition of human M14 cell growth in a cell viability assay.

MN-60 = format: functional, cell-based; details: Homo sapiens;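 note: growth inhibition of the MN-60 cell line, determined with a cell viability assay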
Description: SANGER: Inhibition of human MN-60 cell growth in a cell viability assay.

NCI-H1563 = format: functional, cell-based, Homo sapiens; details: Homo sapiens, NCI-H1563;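 note: growth inhibition of human NCI-H1563 cells, read out with a cell viability assay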
Description: SANGER: Inhibition of human NCI-H1563 cell growth in a cell viability assay.

PANC-03-27 = format: functional, cell-based, Homo sapiens; details: Homo sapiens, PANC-03-27
Description: SANGER: Inhibition of human PANC-03-27 cell growth in a cell viability assay.

NCI-H596 = format: functional, cell-based, Homo sapiens; details: Homo sapiens, NCI-H596;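 note: growth inhibition of NCI-H596 cells, read out with a cell viability assay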
Description: SANGER: Inhibition of human NCI-H596 cell growth in a cell viability assay.

SK-N-FI = format: functional, cell-based, Homo sapiens; details: Homo sapiens, SK-N-FI;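 note: cell viability assay measuring growth inhibition of human SK-N-FI cells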
Description: SANGER: Inhibition of human SK-N-FI cell growth in a cell viability assay.

K5 = format: functional, cell-based, Homo sapiens; details: Homo sapiens, K5
Description: SANGER: Inhibition of human K5 cell growth in a cell viability assay.

NB13 = format: functional, cell-based, Homo sapiens; details: Homo sapiens, NB13;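 note: cell viability readout measuring growth inhibition of human NB13 cells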
Description: SANGER: Inhibition of human NB13 cell growth in a cell viability assay.

G-401 = format: functional, cell-based, Homo sapiens; details: Homo sapiens, G-401
Description: SANGER: Inhibition of human G-401 cell growth in a cell viability assay.

DoTc2-4510 = format: functional, cell-based, Homo sapiens; details: Homo sapiens, DoTc2-4510
EW-16 = format: functional, cell-based, Homo sapiens; details: Homo sapiens, EW-16;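 note: growth inhibition of human EW-16 cells, read out as cell viability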
Description: SANGER: Inhibition of human EW-16 cell growth in a cell viability assay.

SW1710 = format: functional, cell-based, Homo sapiens; details: Homo sapiens, SW1710;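 note: growth inhibition of SW1710 cells, determined with a cell viability assay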
Description: SANGER: Inhibition of human SW1710 cell growth in a cell viability assay.

P30-OHK = format: functional, cell-based; details: Homo sapiens;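 note: growth inhibition of the P30-OHK cell line, read out with a cell viability assay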
Description: SANGER: Inhibition of human P30-OHK cell growth in a cell viability assay.

A 172 = format: functional, cell-based, Homo sapiens; details: Homo sapiens, A 172;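 note: growth inhibition of A172 cells, measured with a cell viability readout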
Description: SANGER: Inhibition of human A172 cell growth in a cell viability assay.

U-118-MG = format: functional, cell-based, Homo sapiens; details: Homo sapiens, U-118-MG
Description: SANGER: Inhibition of human U-118-MG cell growth in a cell viability assay.

ACHN = format: functional, cell-based, Homo sapiens; details: Homo sapiens, ACHN;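 note: cell viability read-out used to gauge how strongly growth of human ACHN cells is suppressed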
Description: SANGER: Inhibition of human ACHN cell growth in a cell viability assay.

CP66-MEL = format: functional, cell-based, Homo sapiens; details: Homo sapiens, CP66-MEL;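 note: growth inhibition of CP66-MEL cells determined in a cell viability assay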
Description: SANGER: Inhibition of human CP66-MEL cell growth in a cell viability assay.

CW-2 = format: functional, cell-based, Homo sapiens; details: Homo sapiens, CW-2;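 note: growth inhibition of CW-2 cells, read out by a cell viability assay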
Description: SANGER: Inhibition of human CW-2 cell growth in a cell viability assay.

ASPC1 = format: functional, cell-based, Homo sapiens; details: Homo sapiens, ASPC1;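 note: growth inhibition of AsPC-1 cells, read out with a cell viability assay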
Description: SANGER: Inhibition of human AsPC-1 cell growth in a cell viability assay.

COLO-824 = format: functional, cell-based, Homo sapiens; details: Homo sapiens, COLO-824
Description: SANGER: Inhibition of human COLO-824 cell growth in a cell viability assay.

CAL-120 = format: functional, cell-based, Homo sapiens; details: Homo sapiens, CAL-120;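 note: cell growth inhibition, read out as cell viability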
Description: SANGER: Inhibition of human CAL-120 cell growth in a cell viability assay.

D-247MG = format: functional, cell-based, Homo sapiens; details: Homo sapiens, D-247MG
Description: SANGER: Inhibition of human D-247MG cell growth in a cell viability assay.

GI-1 = format: functional, cell-based, Homo sapiens; details: Homo sapiens, GI-1;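 note: growth inhibition of human GI-1 cells, measured with a cell viability readout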
Description: SANGER: Inhibition of human GI-1 cell growth in a cell viability assay.

COR-L88 = format: functional, cell-based; details: Homo sapiens;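 note: growth inhibition of COR-L88 cells, read out with a cell viability assay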
Description: SANGER: Inhibition of human COR-L88 cell growth in a cell viability assay.

LB2518-MEL = format: functional, cell-based, Homo sapiens; details: Homo sapiens, LB2518-MEL;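 note: growth inhibition of human LB2518-MEL cells, measured with a cell viability assay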
Description: SANGER: Inhibition of human LB2518-MEL cell growth in a cell viability assay.

SF-268 = format: functional, cell-based, Homo sapiens; details: Homo sapiens, SF-268;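 note: growth inhibition of SF-268 cells determined with a cell viability assay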
Description: SANGER: Inhibition of human SF268 cell growth in a cell viability assay.

SW1990 = format: functional, cell-based, Homo sapiens; details: Homo sapiens, SW1990;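 note: cell growth inhibition determined with a viability assay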
Description: SANGER: Inhibition of human SW1990 cell growth in a cell viability assay.

MMAC-SF = format: functional, cell-based, Homo sapiens; details: Homo sapiens, MMAC-SF;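 note: growth inhibition of human MMAC-SF cells, read out with a cell viability assay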
Description: SANGER: Inhibition of human MMAC-SF cell growth in a cell viability assay.

K562 = format: functional, cell-based; details: Homo sapiens
Description: SANGER: Inhibition of human K-562 cell growth in a cell viability assay.

NB69 = format: functional, cell-based, Homo sapiens; details: Homo sapiens, NB69;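 note: growth inhibition of NB69 cells, determined by a cell viability assay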
Description: SANGER: Inhibition of human NB69 cell growth in a cell viability assay.

VA-ES-BJ = format: functional, cell-based, Homo sapiens; details: Homo sapiens, VA-ES-BJ;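 note: growth inhibition of the VA-ES-BJ cell line, read out by a cell viability assay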
Description: SANGER: Inhibition of human VA-ES-BJ cell growth in a cell viability assay.

HT-1376 = format: functional, cell-based, Homo sapiens; details: Homo sapiens, HT-1376
Description: SANGER: Inhibition of human HT-1376 cell growth in a cell viability assay.

COR-L105 = format: functional, cell-based, Homo sapiens; details: Homo sapiens, COR-L105;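 note: cell growth inhibition determined with a viability assay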
Description: SANGER: Inhibition of human COR-L105 cell growth in a cell viability assay.

In the case of `CCOc1nc(NC(=O)Cc2cc(OC)ccc2OC)cc(N)c1C#N`, the IC50 (HD-MY-Z) is reported as > 10 µM, the IC50 (DBTRG-05MG) is reported as > 10 µM and the IC50 (GP5d) is reported as > 10 µM. The IC50 (UMUC3) was > 10 µM, the IC50 (IST-MES1) was > 10 µM and the IC50 (ES3) was > 10 µM. For the same compound, the IC50 (NCI-N87) was > 10 µM, the IC50 (OAW-28) was > 10 µM and the IC50 (MDA-MB-175-VII) was > 10 µM. For the same compound, the IC50 (AU565) was > 10 µM, the IC50 (DMS-114) was > 10 µM and the IC50 (LB771-HNC) was > 10 µM. The IC50 (T84) was > 10 µM, the IC50 (NCI-H23) was > 10 µM and the IC50 (Huh-7) was > 10 µM. For the same compound, the IC50 (NCI-H1650) was > 10 µM, the IC50 (M14) was > 10 µM and the IC50 (MN-60) was > 10 µM. The IC50 (NCI-H1563) was > 10 µM, the IC50 (PANC-03-27) was > 10 µM and the IC50 (NCI-H596) was > 10 µM. For the same compound, the IC50 (SK-N-FI) was > 10 µM, the IC50 (K5) was > 10 µM and the IC50 (NB13) was > 10 µM. The IC50 (G-401) was > 10 µM, the IC50 (DoTc2-4510) was > 10 µM and the IC50 (EW-16) was > 10 µM. The IC50 (SW1710) was > 10 µM, the IC50 (P30-OHK) was > 10 µM and the IC50 (A 172) was > 10 µM. For the same compound, the IC50 (U-118-MG) was > 10 µM, the IC50 (ACHN) was > 10 µM and the IC50 (CP66-MEL) was > 10 µM. The IC50 (CW-2) was > 10 µM, the IC50 (ASPC1) was > 10 µM and the IC50 (COLO-824) was > 10 µM. For the same compound, the IC50 (CAL-120) was > 10 µM, the IC50 (D-247MG) was > 10 µM and the IC50 (GI-1) was > 10 µM. For the same compound, the IC50 (COR-L88) was > 10 µM, the IC50 (LB2518-MEL) was > 10 µM and the IC50 (SF-268) was > 10 µM. For the same compound, the IC50 (SW1990) was > 10 µM, the IC50 (MMAC-SF) was > 10 µM and the IC50 (K562) was > 10 µM. For the same compound, the IC50 (NB69) was > 10 µM, the IC50 (VA-ES-BJ) was > 10 µM and the IC50 (HT-1376) was > 10 µM. For the same compound, the IC50 (COR-L105) was > 10 µM.
`CC(=O)O[C@@H]1[C@@H](OC(C)=O)[C@@H](O)[C@H](Oc2c(-c3ccc(O)cc3)oc3cc(O)cc(O)c3c2=O)O[C@H]1C` was tested, and the IC50 (HD-MY-Z) was > 10 µM, the IC50 (DBTRG-05MG) was > 10 µM and the IC50 (GP5d) was > 10 µM. For the same compound, the IC50 (UMUC3) was > 10 µM, the IC50 (IST-MES1) was > 10 µM and the IC50 (ES3) was > 10 µM. The IC50 (NCI-N87) was > 10 µM, the IC50 (OAW-28) was > 10 µM and the IC50 (MDA-MB-175-VII) was > 10 µM. The IC50 (AU565) was > 10 µM, the IC50 (DMS-114) was > 10 µM and the IC50 (LB771-HNC) was > 10 µM. The IC50 (T84) was > 10 µM, the IC50 (NCI-H23) was > 10 µM and the IC50 (Huh-7) was > 10 µM. For the same compound, the IC50 (NCI-H1650) was > 10 µM, the IC50 (M14) was > 10 µM and the IC50 (MN-60) was > 10 µM. The IC50 (NCI-H1563) was > 10 µM, the IC50 (PANC-03-27) was > 10 µM and the IC50 (NCI-H596) was > 10 µM. For the same compound, the IC50 (SK-N-FI) was > 10 µM, the IC50 (K5) was > 10 µM and the IC50 (NB13) was > 10 µM. The IC50 (G-401) was > 10 µM, the IC50 (DoTc2-4510) was > 10 µM and the IC50 (EW-16) was > 10 µM. The IC50 (SW1710) was > 10 µM, the IC50 (P30-OHK) was > 10 µM and the IC50 (A 172) was 4.77 µM. For the same compound, the IC50 (U-118-MG) was > 10 µM, the IC50 (ACHN) was > 10 µM and the IC50 (CP66-MEL) was > 10 µM. The IC50 (CW-2) was > 10 µM, the IC50 (ASPC1) was > 10 µM and the IC50 (COLO-824) was > 10 µM. For the same compound, the IC50 (CAL-120) was > 10 µM, the IC50 (D-247MG) was > 10 µM and the IC50 (GI-1) was > 10 µM. For the same compound, the IC50 (COR-L88) was > 10 µM, the IC50 (LB2518-MEL) was > 10 µM and the IC50 (SF-268) was > 10 µM. The IC50 (SW1990) was > 10 µM, the IC50 (MMAC-SF) was > 10 µM and the IC50 (K562) was > 10 µM. The IC50 (NB69) was > 10 µM, the IC50 (VA-ES-BJ) was > 10 µM and the IC50 (HT-1376) was > 10 µM. For the same compound, the IC50 (COR-L105) was > 10 µM.
